In patent US12091650B2, “Development of spinal cord on a microfluidic chip” (EMULATE, INC., priority 2016, dated 2024):
“Also recorded” adds a separate entry of the source.

Key:
neurons seeded in chip = type: cell-based, human
[1] = test system: SC-Chip neurons (lines 83GFP and 00iCTR); type: cell-based, human
[2] = test system: blood brain barrier (BBB) on-chip; type: in vitro ADME, human; conditions: FIG. 46A, % Dextran (fluorescence)
Experimental: (§1) In some embodiments, methods for seeding cells on-chip are provided, as follows for one example: Day—1: Activate and Coat Chips, Day 0: Seed HBMECs, Astrocytes and Pericytes.; Day 1: Initiate flow of media @60 μl/hr. Bottom channel only or Top and bottom channels.; Day 2: Initiate permeability assay: Dextran+ Serum proteins+ Compounds of interest.; Day 3: End permeability assay. Collect media and freeze.; Day 4: Test permeability modulators/experimental stimuli Day 5: Repeat permeability assay.; Day 6: End permeability assay—Collect media and freeze. Fix or lyse chips.

iBMEC barrier function = assay: TEER measurement on prototype TEER chips under flow; type: cell-based, human; conditions: FIG. 14A, chips under flow then exposed to TNFa
Experimental: Cells were plated on tall channel PDMS chips equipped with incorporated gold electrodes on each channel (see FIG. 13A). Post seeding of BMECs, transendothelial electrical resistance was measured by connecting the electrodes to an EVOM2 voltohmmeter (see FIG. 13B). […] The “damaged” chip was a failure due to the TEER-Chips being a prototype.
Higher TEER values generally indicate a tighter barrier, which is typically desirable for a blood-brain barrier.

[3] = test system: BMECs seeded on a microfluidic device; assay: Paracellular permeability assay with Dextran-FITC on chip; type: cell-based, human; conditions: FIG. 14B, TNFa exposure
Experimental: Albumin or Dextran conjugated to a fluorescent probe (e.g., FITC or TRITC) are frequently used to monitor changes in leakage, and thus barrier function. In this case, Dextran-FITC, a green fluorescent molecule of 4 KDa, or sodium fluorescein (a 0.3 KDa molecule), was added to the bottom (“blood side”) channel. Paracellular permeability was calculated by measuring the permeability of the fluorescent molecule on the Top (“brain side”) channel. […] FIG. 14B involves TNF-alpha exposure, but the readout is membrane permeability as measured by Dextran-FITC.

[4] = test system: blood brain barrier (BBB) on-chip, iPS-derived brain endothelial cells; assay: Barrier function test with human serum proteins (ELISA); type: in vitro ADME; conditions: FIG. 47, ELISA
Experimental: as §1

With `NC1=N[C@H](O)[C@H]2[C@H]3O[C@]4(O)O[C@@H]([C@@H](O)[C@@]2(N1)[C@@H]4O)[C@]3(O)CO` [tetrodotoxin] the “effect on calcium flux (neuronal) activity” value (neurons seeded in chip) was “ablates this activity” and the “neuron activity (calcium transients)” value [1] was “completely ablated”.
In the case of Dextran, the “diffusion from Vascular Channel to Neuronal Channel” value [2] is reported as “low diffusion”.
TNFa was tested, and the “iBMEC barrier function (TEER) after exposure” value (iBMEC barrier function) was “weakening of barrier function; also recorded: decrease in barrier function and TEER” and the “permeability through the semi-porous membrane by dextran-FITC after exposure” value [3] was “increase in permeability”.
For “transferrin: human transferrin measured by ELISA”, the “diffusion / level in neuronal channel, from Vascular Channel to Neuronal Channel” value [4] was “High levels”.
